Tests used:
[1] = system: Ba/F3_CSF-1R (stably expressing human CSF-1R kinase); assay: Cell proliferation assay, Ba/F3_CSF-1R; format: cell-based; conditions: BaF3, 72 h, Ba/F3_CSF-1R cells, 72 hours treatment; read-out: CSF-1R BaF3 EC50
[2] = system: EOC2 cell; assay: Cell proliferation assay, EOC2; format: cell-based, mouse; conditions: Mus musculus, 72 h, EOC2 cells, 72 hours treatment; read-out: ECO2 EC50
[3] = biological target: CSF-1R (Homo sapiens (Human), UniProt P07333); assay: Biochemical HTRF kinase assay, CSF-1R; conditions: Table 2; recombinant human CSF-1R;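 note: enzyme incubated with inhibitor plus a substrate and ATP mix for one hour at room temperature before HTRF detection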
Chain of CSF-1R (P07333 20-972): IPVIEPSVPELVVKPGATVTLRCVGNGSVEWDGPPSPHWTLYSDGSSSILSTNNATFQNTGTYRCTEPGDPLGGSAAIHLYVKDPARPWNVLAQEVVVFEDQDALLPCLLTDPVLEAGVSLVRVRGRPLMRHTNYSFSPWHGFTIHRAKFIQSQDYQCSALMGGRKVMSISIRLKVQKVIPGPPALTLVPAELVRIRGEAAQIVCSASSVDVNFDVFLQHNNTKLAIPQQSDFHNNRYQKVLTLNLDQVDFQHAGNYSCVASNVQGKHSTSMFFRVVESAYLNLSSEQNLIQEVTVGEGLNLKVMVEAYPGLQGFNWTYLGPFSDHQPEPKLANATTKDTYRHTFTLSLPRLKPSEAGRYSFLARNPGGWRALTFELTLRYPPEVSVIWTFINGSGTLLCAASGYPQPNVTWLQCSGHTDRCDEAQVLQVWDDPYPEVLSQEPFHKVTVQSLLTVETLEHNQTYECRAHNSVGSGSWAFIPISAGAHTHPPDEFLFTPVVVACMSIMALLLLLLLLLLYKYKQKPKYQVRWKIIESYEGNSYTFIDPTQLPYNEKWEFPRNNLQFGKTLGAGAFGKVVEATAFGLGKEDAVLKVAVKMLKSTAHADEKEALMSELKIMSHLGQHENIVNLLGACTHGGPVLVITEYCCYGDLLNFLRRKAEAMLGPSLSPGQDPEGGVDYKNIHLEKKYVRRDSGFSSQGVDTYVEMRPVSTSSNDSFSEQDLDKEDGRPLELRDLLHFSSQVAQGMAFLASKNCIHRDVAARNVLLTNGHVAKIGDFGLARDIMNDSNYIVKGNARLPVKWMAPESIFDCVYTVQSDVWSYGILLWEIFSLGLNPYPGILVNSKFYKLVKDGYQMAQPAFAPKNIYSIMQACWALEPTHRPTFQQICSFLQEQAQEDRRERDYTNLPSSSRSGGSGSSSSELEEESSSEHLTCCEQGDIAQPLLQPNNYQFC

Compound | EC50 [1] [µM] | EC50 [2] [µM] | IC50 [3] [µM]
COc1cnc2c(Cc3cnc(OCc4ccc(OC)nn4)c(OC)c3)ccnc2c1 [Example 32, 3-methoxy-8-((5-methoxy-6-((6-methoxypyridazin-3-yl)methoxy)pyridin-3-yl)methyl)-1,5-naphthyridine] | 0.267 | 0.129 | 0.0201
COc1ccc2c(Cc3ccc(OCc4ccc5c(c4)OC(F)(F)O5)c(OC)c3)ccnc2c1 [Example 33] | 0.218 | 0.0895 | 0.203
COc1ccc2c(Cc3ccc(OCc4cc(C)no4)c(OC)c3)ccnc2c1 [Example 34] | 0.493 | 0.462 | 0.0232
COc1ccc2c(Cc3ccc(OCc4cnc(C)s4)c(OC)c3)ccnc2c1 [Example 35] | 0.449 | 0.392 | 0.0161
COc1ccc2c(Cc3ccc(OCc4cc(C)on4)c(OC)c3)ccnc2c1 [Example 36] | 0.637 | 0.486 | 0.0398
COc1ccc(COc2ncc(Cc3ccnc4cc(OC)cnc34)cc2OC)cc1 [Example 38] | 0.21 | 0.0408 | 0.0021
COc1cnc2c(Cc3cnc(OCc4ccc(OC)nc4)c(OC)c3)ccnc2c1 [Example 39] | 0.0465 | 0.0321 | 0.001
COc1cnc(COc2ccc(Cc3ccnc4cc(OC)ccc34)cc2OC)nc1 [Example 40] | > 1 | 0.956 | 0.0937
COc1cnc2c(Cc3cnc(OCc4cc(F)cnc4OC)c(OC)c3)ccnc2c1 [Example 41] | > 1 | > 1 | 0.0399
COc1cnc2c(Cc3cnc(OCc4cnc(C)s4)c(OC)c3)ccnc2c1 [Example 42] | 0.51 | 0.408 | 0.0147
COc1cnc2c(Cc3cnc(OCc4cnn(C(C)C)c4)c(OC)c3)ccnc2c1 [Example 43] | > 1 | > 1 | 0.0028
COc1cnc2c(Cc3cnc(OCc4cnc(OC)cn4)c(OC)c3)ccnc2c1 [Example 44] | 0.457 | 0.171 | 0.0086
COc1cnc2c(Cc3cnc(OCc4cc(C)no4)c(OC)c3)ccnc2c1 [Example 46, 5-(((3-methoxy-5-((7-methoxy-1,5-naphthyridin-4-yl)methyl)pyridin-2-yl)oxy)methyl)-3-methylisoxazole] | 0.332 | 0.201 | 0.0224
CCn1cc(COc2ncc(Cc3ccnc4cc(OC)cnc34)cc2OC)cn1 [Example 47] | > 1 | > 1 | 0.002
COc1cnc2c(Cc3cnc(OCc4ccn(C)n4)c(OC)c3)ccnc2c1 [Example 48] | 0.586 | 0.296 | 0.0082
COc1cnc2c(Cc3cnc(OCc4ccnn4C)c(OC)c3)ccnc2c1 [Example 49] | > 1 | > 1 | 0.0621
COc1cnc2c(Cc3cnc(OCc4cnc(OC)nc4)c(OC)c3)ccnc2c1 [Example 50] | 0.481 | 0.312 | 0.0152
COc1cnc2c(Cc3cnc(OCc4cc(C)on4)c(OC)c3)ccnc2c1 [Example 51] | 0.59 | 0.225 | 0.105
COc1ccc(COc2ncc(Cc3ccnc4cc(OC)ncc34)cc2OC)nc1 [Example 52] | 0.482 | 0.209 | 0.0497
COc1ccc(COc2ncc(Cc3ccnc4ccc(OC)nc34)cc2OC)nc1 [Example 53] | 0.338 | 0.278 | 0.0601
COc1ccc(COc2ncc(Oc3ccnc4cc(OC)cnc34)cc2OC)nc1 [Example 54, 3-methoxy-8-((5-methoxy-6-((5-methoxypyridin-2-yl)methoxy)pyridin-3-yl)oxy)-1,5-naphthyridine] | 0.8 | 0.317 | 0.0871
CCc1cc(COc2ncc(Cc3ccnc4cc(OC)cnc34)cc2OC)on1 [Example 57] | 0.178 | 0.0986 | 0.019
COc1cnc2c(Cc3cnc(OCc4ccc(C(F)F)nc4)c(OC)c3)ccnc2c1 [Example 60] | 0.0973 | 0.0841 | 0.0054
COc1cnc2c(Cc3cnc(OCc4ccc(C(F)(F)F)cn4)c(OC)c3)ccnc2c1 [Example 61] | 0.0706 | 0.0474 | 0.0039
COc1ccc(COc2ncc(Cc3ccnc4cc(C)cnc34)cc2OC)nc1 [Example 63] | 0.236 | 0.688 | 0.0167
COc1ccc(COc2ncc(Cc3ccnc4cc(F)cnc34)cc2OC)nc1 [Example 64] | 0.4 | 0.973 | 0.0218
COc1ccc(COc2ncc(Cc3ccnc4cc(C#N)cnc34)cc2OC)nc1 [Example 65, 8-((5-methoxy-6-((5-methoxypyridin-2-yl)methoxy)pyridin-3-yl)methyl)-1,5-naphthyridine-3-carbonitrile] | 0.787 | > 1 | 0.0269

Compound | EC50 [1] [µM] | EC50 [2] [µM] | IC50 [3] [µM]
COc1cnc2c(Cc3cnc(OCc4ccc(=O)n(C)c4)c(OC)c3)ccnc2c1 [Example 67] | > 1 | > 1 | 0.0093
COc1ccc(COc2ncc(Cc3ccnc4cc(OC)cnc34)cc2OC(F)F)nc1 [Example 68, 8-((5-(difluoromethoxy)-6-((5-methoxypyridin-2-yl)methoxy)pyridin-3-yl)methyl)-3-methoxy-1,5-naphthyridine] | > 1 | > 1 | 0.0992
COc1cnc2c(Cc3cnc(OCc4ccc(C5CC5)cn4)c(OC(F)F)c3)ccnc2c1 [Example 69] | > 1 | > 1 | 0.203
COc1cnc2c(Cc3cnc(OCc4nc(C)no4)c(OC)c3)ccnc2c1 [Example 70] | > 1 | > 1 | 0.272
COCc1ccc(COc2ncc(Cc3ccnc4cc(OC)cnc34)cc2OC)nc1 [Example 71] | 0.359 | 0.168 | 0.0254
COc1cnc2c(Cc3cnc(OCc4cc5n(n4)CCN(C)C5)c(OC)c3)ccnc2c1 [Example 75] | 0.949 | 0.448 | 0.032
COc1cnc2c(Cc3cnc(OCc4ccc(C5COC5)cn4)c(OC)c3)ccnc2c1 [Example 76] | 0.301 | 0.0821 | 0.0136
COc1ccc(COc2ncc(C(C)c3ccnc4cc(OC)cnc34)cc2OC)nc1 (stereo not drawn) [Example 77] | 0.543 | 0.36 | 0.101
COc1ccc(COc2ncc(C(F)c3ccnc4cc(OC)cnc34)cc2OC)nc1 (stereo not drawn) [Example 84, 8-(fluoro(5-methoxy-6-((5-methoxypyridin-2-yl)methoxy)pyridin-3-yl)methyl)-3-methoxy-1,5-naphthyridine] | > 1 | > 1 | 0.0284
COc1cnc2c(Cc3cnc(OCc4ccc(CN(C)C)cn4)c(OC)c3)ccnc2c1 [Example 85] | > 1 | > 1 | 0.11
COc1cnc2c(Cc3cnc(OCc4cc5n(n4)CCCO5)c(OC)c3)ccnc2c1 [Example 86] | 0.29 | 0.183 | 0.0044
COc1cnc2c(Cc3cnc(OCc4ccc(C5CN(C)C5)cn4)c(OC)c3)ccnc2c1 [Example 89] | > 1 | > 1 | 0.286
COc1cnc2c(Cc3cnc(OCc4cc(C5COC5)no4)c(OC)c3)ccnc2c1 [Example 90] | 0.282 | 0.154 | 0.0174
COc1cnc2c(Cc3cnc(OCc4cc(C)n(C5CN(C)C5)n4)c(OC)c3)ccnc2c1 [Example 91] | 0.753 | 0.388 | 0.0406
COc1cnc2c(Cc3cnc(OCc4cnc5c(c4)CCC5OC)c(OC)c3)ccnc2c1 (stereo not drawn) [Example 92] | 0.0679 | 0.026 | 0.0018
COc1cnc2c(Cc3cnc(OCc4cn5c(n4)CN(C)CC5)c(OC)c3)ccnc2c1 [Example 94] | > 1 | > 1 | 0.014
[2H]C([2H])(c1cnc(OCc2ccc(OC)cn2)c(OC)c1)c1ccnc2cc(OC)cnc12 [Example 95] | 0.0422 | 0.0543 | 0.0034
COCc1cc(COc2ncc(Cc3ccnc4cc(OC)cnc34)cc2OC)nn1C [Example 96] | 0.234 | 0.19 | 0.0162
COc1cnc2c(Cc3cnc(OCc4cc(C(F)(F)F)n(C)n4)c(OC)c3)ccnc2c1 [Example 97] | 0.034 | 0.0827 | 0.002
COc1cnc2c(Cc3cnc(OCc4cc5n(n4)CCOC5C)c(OC)c3)ccnc2c1 (stereo not drawn) [Example 98] | 0.0573 | 0.0547 | 0.0047
COc1cnc2c(Cc3cnc(OCc4cc5n(n4)CCOC5(C)C)c(OC)c3)ccnc2c1 [Example 99] | 0.0591 | 0.0517 | 0.0056
COc1cnc2c(Cc3cnc(OCc4cc(C(C)OC)n(C)n4)c(OC)c3)ccnc2c1 (stereo not drawn) [Example 102] | 0.134 | 0.077 | 0.004
COc1cnc2c(Cc3cnc(OCc4cc5n(n4)C(C)COC5)c(OC)c3)ccnc2c1 (stereo not drawn) [Example 103] | 0.0417 | 0.026 | 0.0019
COc1cnc2c(Cc3cnc(OCc4cc(C(C)C)nn4C)c(OC)c3)ccnc2c1 [Example 106] | 0.0959 | 0.0763 | 0.0026
COc1cnc2c(Cc3cnc(OCc4cc5n(n4)CCCOC5)c(OC)c3)ccnc2c1 [Example 107] | 0.0659 | 0.0371 | 0.0016
COc1cnc2c(Cc3cnc(OCc4cc5n(n4)CC4(CC4)C5)c(OC)c3)ccnc2c1 [Example 108] | 0.0376 | 0.0237 | 0.0019
COc1cnc2c(Cc3cnc(OCc4cc(C5CC5)n(C)n4)c(OC)c3)ccnc2c1 [Example 109] | 0.102 | 0.0437 | 0.0011
